{"source": "patent US8673850B2", "about": "“PCSK9 inhibitors and methods of use thereof” (Institut de Recherches Cliniques de Montreal, priority 2008, dated 2014)", "key": {"Annexin II": {"test_system": "Annexin II", "details": "LNCaP cells; cited from earlier work"}, "LDLR": {"test_system": "LDLR", "test": "5-Azacytidine treatment of HepG2 cells, LDLR expression", "type": "cell-based, human", "text": "(§1) Western blotting experiments were made on samples that were reduced in Laemmli buffer, heated and resolved on 8% glycine SDS-PAGE gels. Separated proteins were then electro-transferred onto nitrocellulose, and probed with HRP-conjugated anti-V5 or anti-HA tags or with primary antibodies. […] Quantitation of band intensity was done with the ImageJ™ software version 1.37 (Wayne Rasband, National Institutes of Health, Bethesda, Md.).\n(§2) For RNA preparation and cDNA synthesis cells were washed with PBS and incubated with Trizol reagent (Life Technologies). Total RNA was extracted and resuspended in ˜30 μL of water. Isolated RNA integrity was electrophoretically verified by ethidium bromide staining and optical density. Typically, 250 ng of total RNA were used for cDNA synthesis in a total volume of 20 μL using SuperScript™ II reverse transcriptase, 25 μg/mL oligo(dT)12-18, 0.5 mmol/L 2′-deoxynucleoside 5′-triphosphates, and 40 U of RNaseOUT™, all products from Life Technologies, and used according to the recommendations of the manufacturer. All primers were designed using Primer3™ software and optimized for each amplification. […] Each reaction was in a final volume of 25 μL using the QuantiTec SYBR Green™ PCR master mix from Qiagen, cDNA dilutions that gave threshold cycle (Ct) values for both amplifications, and primers for ribosomal-protein genes or the chosen target gene. […]"}, "HMG-CoA reductase": {"test_system": "HMG-CoA reductase", "test": "5-Azacytidine treatment of HepG2 cells, HMG-CoA reductase expression", "type": "cell-based, human", "details": "HepG2, qPCR", "procedure": "For RNA preparation and cDNA synthesis cells were washed with PBS and incubated with Trizol reagent (Life Technologies). Total RNA was extracted and resuspended in ˜30 μL of water. Isolated RNA integrity was electrophoretically verified by ethidium bromide staining and optical density. Typically, 250 ng of total RNA were used for cDNA synthesis in a total volume of 20 μL using SuperScript™ II reverse transcriptase, 25 μg/mL oligo(dT)12-18, 0.5 mmol/L 2′-deoxynucleoside 5′-triphosphates, and 40 U of RNaseOUT™, all products from Life Technologies, and used according to the recommendations of the manufacturer. All primers were designed using Primer3™ software and optimized for each amplification. Each cDNA sample was submitted to 2 polymerase chain reaction (PCR) amplifications: one for normalizing ribosomal-protein gene (S14 for human and S16 for mouse cDNAs) and the other for the gene of interest, each in triplicate. Each reaction was in a final volume of 25 μL using the QuantiTec SYBR Green™ PCR master mix from Qiagen, cDNA dilutions that gave threshold cycle (Ct) values for both amplifications, and primers for ribosomal-protein genes or the chosen target gene. The Mx3500P™ system from Stratagene was used to perform and analyze the QPCR reactions, using S14 amplifications as normalizers and control samples as calibrators^25.35."}, "PCSK9": {"test_system": "PCSK9", "test": "5-Azacytidine treatment of HepG2 cells, PCSK9 expression", "type": "cell-based, human", "text": "as §1, §2"}, "AnxA2": {"test_system": "AnxA2", "test": "5-Azacytidine treatment of HepG2 cells, AnxA2 expression", "type": "cell-based, human", "text": "as §1, §2"}}}
{"smiles": "Nc1ncn([C@@H]2O[C@H](CO)[C@@H](O)[C@H]2O)c(=O)n1", "note": "[5-Azacytidine]", "values": [{"measurement": "expression of Annexin II", "setting": "Annexin II", "result": "induced an increase of expression"}, {"measurement": "LDLR expression at the protein level", "setting": "LDLR; HepG2, Western blot", "result": "increased expression"}, {"measurement": "LDLR mRNA level", "setting": "LDLR; HepG2, qPCR", "result": "increased"}, {"measurement": "HMG-CoA reductase mRNA level", "setting": "HMG-CoA reductase", "result": "decreased"}, {"measurement": "secreted form of PCSK9 by western blot", "setting": "PCSK9; HepG2, 24 or 48 hours of treatment", "result": "barely detectable"}, {"measurement": "mRNA level of PCSK9", "setting": "PCSK9; HepG2, qPCR", "result": "drastically decreased"}, {"measurement": "AnxA2 mRNA expression", "setting": "AnxA2; HepG2, 10 μM, qPCR", "result": 3, "unit": "fold"}, {"measurement": "AnxA2 protein level", "setting": "AnxA2; HepG2, Western blot", "result": "highly increased"}]}
